Data: paper PMC10051705, “Leishmanicidal Activity of Guanidine Derivatives against Leishmania infantum” (Tropical Medicine and Infectious Disease, 2023)

Columns and labels:
[1] = test system: L. infantum axenic amastigotes; test: axenic amastigote inhibition assay (MTT); type: cell-based; settings: Leishmania infantum, 24 h; for EC50: 37 °C, pH 5.5, MTT
[2] = in vitro cytotoxicity in PBMC (MTT); type: cell-based, human; settings: both sexes, human, peripheral blood mononuclear cells (PBMCs), human PBMC, 24 h, MTT
Description: In vitro cytotoxicity was evaluated using peripheral blood mononuclear cells (PBMCs) collected from three healthy volunteers (2 males, mean age 33; and 1 person). PBMCs were separated by density gradient using Ficoll Paque PLUS (GE Healthcare, USA), pelleted by centrifugation (400× g for 40 min), and resuspended in RPMI 1640 medium, then supplemented with 10% fetal bovine serum and 1% antibiotic solution (penicillin 5000 Units/mL + streptomycin 5000 μg/mL). After 24 h of treatment, cell viability was evaluated by the modified colorimetric method based on the tetrazolium dye MTT (3-(4,5-dimethylthiazol-2-yl)-2,5- diphenyltetrazolium bromide). The MTT assay was used for in vitro cytotoxicity as previously described with the following modifications: cells were exposed to serially diluted concentrations of LQOFG-2, LQOFG-6, LQOFG-7 (1000 to 7.8 µM), and AmB (100 to 0.78 µM). The plates were kept at 37 °C for 24 h. MTT (5 mg/mL) was added and incubated for 4 h at 37 °C, after which the plates were centrifuged, the supernatant was discarded, and DMSO was added, leaving the plates under stirring to solubilize the formazan salts. Absorbance was measured at 540 nm using a plate reader (ELx800; Curitiba, PR, Brazil). The mean percentage of viable cells was calculated relative to the untreated control.

[3] = test system: monocytes in PBMCs; test: nitrite assay (Griess reaction) in PBMC/monocytes infected or not with L. infantum; type: cell-based, human; settings: for nitrite production: compound at 1× EC50, 24 h
Description: To perform the nitrite assay, PBMCs were obtained from five healthy volunteers (3 males, mean age 28.67 ± 2.96; and 2 females, mean age 28.50 ± 0.5) from João Pessoa, PB Brazil. Briefly, peripheral blood was diluted 1:1 with phosphate-buffered saline (PBS) and slowly layered over using Ficoll® Paque PLUS (GE Healthcare, Waukesha, WI, USA). Tubes were centrifuged at 400× g for 40 min at 20 °C. After centrifugation, PBMCs were harvested, washed three times with PBS, and resuspended in RPMI medium supplemented with antibiotics (penicillin 200 U/mL and streptomycin 0.1 mg/mL), 1 mM l-glutamine, and 10% inactivated human serum. Cell viability was assessed using a trypan blue dye exclusion assay. Cells were counted using a hemocytometer.
Promastigotes were prepared as previously described. Briefly, to confirm the infection, the L. infantum promastigotes were labeled with carboxyfluorescein diacetate succinimidyl ester (CFSE) (CellTrace ™ CFSE Cell Proliferation Kit; Eugene, OR, USA). The suspension was incubated for 15 min at 5% CO2, 37 °C, and washed three times with PBS containing 10% inactivated FBS producing CFSE-labeled L. infantum, which was added to PBMCs. The infection ratio was set at 1:10 (monocyte: L. infantum) for 3 h. After the infection, cells were washed three times with PBS supplemented with 10% FBS.
The plates were incubated for 24 h in a 5% CO2 incubator at 37 °C. The plates were centrifuged at 200× g for 8 min at 4 °C, and the supernatant was collected to measure reactive nitrogen production. CD14 surface antibody (PERCP-Cy5.5; clone MΦP9) was used for monocyte labeling (Figure S1). After adding the antibody, the plate was incubated at 4 °C for 15 min, protected from light. The cells were washed with ice-cold PBS buffer. The plate was centrifuged at 200× g again for 10 min at 4 °C. The supernatant was removed, the cells were resuspended in 100 µL of PBS buffer and 100 µL of 4% formaldehyde solution, then read on a flow cytometer (BD FACSCanto II, BD Biosciences, San Jose, CA, USA). FlowJo v.10.8.1 software was used to analyze the raw data. After obtaining PBMC, the cells were plated and incubated with LQOFG-7 and AmB at a concentration of 1× the EC50 value, with media or lipopolysaccharide (LPS) stimulus (lipopolysaccharide derived from Escherichia coli, Sigma-Aldrich O111:B4) at 100 ng/mL [26, 27, 28]. The culture supernatants from those infected and non-infected were evaluated for the stable end-product of reactive nitrogen species (NO, nitrates, and nitrites) using the Griess reaction, according to the Cayman Chemical instruction manual (Cayman Chemical, Ann Arbor, MI, USA). The nitrite level was determined by measuring the absorbance at a wavelength of 540 nm using a microplate reader (BioTek-ELx800).

[4] = test system: human red blood cells; test: red blood cell lysis assay; type: cell-based; settings: 1 h, 37 °C
Description: The hemolytic activities of guanidine compounds were measured using human red blood cells from healthy adults (n = 3) according to methods previously described. Briefly, 80 µL of a 5% erythrocyte/phosphate-buffered saline (PBS) suspension was mixed with 20 µL of LQOFG-2, LQOFG-6, LQOFG-7, (1000 to 7.8 µM), and AmB (100 to 0.78 µM). After incubation at 37 °C for 1 h, 200 µL of PBS (1.5 mM KH2PO4, 8.1 mM Na2HPO4, 136.9 mM NaCl, and 2.6 mM KCl, pH 7.2) was added to stop the hemolysis process, and the samples were centrifuged for 10 min at 1000× g. The supernatants were collected, and the extent of hemolysis was measured spectrophotometrically at 540 nm. The hemolysis percentage was determined as [(Abssam − Abscon)/(Abstot − Abscon) × 100], where Abssam is the absorbance of the sample, Abscon is the absorbance of the blank control (without drugs), and Abstot is the absorbance of total hemolysis (replacing the sample solution with an equal volume of ultrapure water (Direct-Q UV®, Guyancourt, France)).

EC50 [1]	SMILES	CC50 at 24 h [2]	nitrite production ([3]; monocytes infected with L. infantum, LPS-activated (100 ng/mL))	increase in nitrite production (in words) ([3]; monocytes infected with L. infantum, treatment at EC50)	HC50, toxicity to red blood cells [4]	inhibition at 31.2 µM ([1]; at 31.2 µM, read-out: inhibition of axenic amastigotes compared to the control (untreated))	nitrite production ([3]; monocytes infected with L. infantum, not LPS-activated, untreated infected 0.367 ± 1.48 µM)	nitrite production ([3]; uninfected human monocytes (PBMC), untreated control 3.81 ± 1.36 µM)
0.3 µM	C[C@@H]1[C@H](O)[C@@H](C)/C=C/C=C/C=C/C=C/C=C/C=C/C=C/[C@H](O[C@@H]2O[C@H](C)[C@@H](O)[C@H](N)[C@@H]2O)C[C@@H]2O[C@](O)(C[C@@H](O)C[C@@H](O)[C@H](O)CC[C@@H](O)C[C@@H](O)CC(=O)O[C@H]1C)C[C@H](O)[C@H]2C(=O)O [Amphotericin B, reference compound]	53.9 ± 3.59 µM	13.6 ± 4.25 µM	no significant increase	7.10 ± 2.09 µM			
18.6 ± 1.23 µM	O=C(/N=C(/NCc1ccccc1)Nc1ccc(I)cc1)c1ccccc1 [LQOFG-7, (Z)-N-((benzylamine)((4-iodophenyl)amino)methylene)benzamide]	745.5 ± 3.58 µM			>1000 µM	58%	13.5 ± 1.30 µM	10.5 ± 3.58 µM
